Patent publication US20210345613A1, “HERBICIDAL PYRIMIDINE COMPOUNDS” (BASF SE, priority 2016, published 2021)

Legend:
Format in all cases: in vivo
Amaranthus retroflexus = assay: greenhouse herbicidal test, post-emergence treatment; conditions: post-emergence method, application rate 2000 g/ha, scale from 0 to 100, test period 2 to 4 weeks
Source text: (§1) The seeds of the test plants were sown separately for each species. For the post-emergence treatment, the test plants were first grown to a height of 3 to 15 cm, depending on the plant habit, and only then treated with the active ingredients which had been suspended or emulsified in water. For this purpose, the test plants were either sown directly and grown in the same containers, or they were first grown separately as seedlings and transplanted into the test containers a few days prior to treatment. Depending on the species, the plants were kept at 10-25° C. or 20-35° C., respectively. The test period extended over 2 to 4 weeks. During this time, the plants were tended, and their response to the individual treatments was evaluated. Evaluation was carried out using a scale from 0 to 100. 100 means no emergence of the plants, or complete destruction of at least the aerial moieties, and 0 means no damage, or normal course of growth. A good herbicidal activity is given at values of at least 70 and a very good herbicidal activity is given at values of at least 85. The plants used in the greenhouse experiments were of the following species: [table]

Matricaria inodora = assay: as above; conditions: post-emergence method, application rate 2000 g/ha, scale from 0 to 100, test period 2 to 4 weeks
Source text: as §1

Echinocloa crus-galli [1] = assay: as above; conditions: post-emergence method, application rate 2000 g/ha, scale from 0 to 100, test period 2 to 4 weeks
Source text: as §1

Apera spica-venti = assay: greenhouse herbicidal test, pre-emergence treatment; conditions: pre-emergence method, application rate 2000 g/ha, scale from 0 to 100, test period 2 to 4 weeks
Source text: (§2) The seeds of the test plants were sown separately for each species. For the pre-emergence treatment, the active ingredients, which had been suspended or emulsified in water, were applied directly after sowing by means of finely distributing nozzles. The containers were irrigated gently to promote germination and growth and subsequently covered with transparent plastic hoods until the plants had rooted. This cover caused uniform germination of the test plants, unless this had been impaired by the active ingredients. Depending on the species, the plants were kept at 10-25° C. or 20-35° C., respectively. The test period extended over 2 to 4 weeks. During this time, the plants were tended, and their response to the individual treatments was evaluated. Evaluation was carried out using a scale from 0 to 100. 100 means no emergence of the plants, or complete destruction of at least the aerial moieties, and 0 means no damage, or normal course of growth. A good herbicidal activity is given at values of at least 70 and a very good herbicidal activity is given at values of at least 85. The plants used in the greenhouse experiments were of the following species: [table]

Setaria viridis = assay: greenhouse herbicidal test, post-emergence treatment; conditions: post-emergence method, application rate 2000 g/ha, scale from 0 to 100, test period 2 to 4 weeks
Source text: as §1

ABUTH = assay: as above; conditions: post-emergence method, application rate 2000 g/ha, scale from 0 to 100, test period 2 to 4 weeks
Source text: as §1, with “85.” for “85. The plants used in the greenhouse experiments were of the following species: [table]”

Echinocloa crus-galli [2] = assay: greenhouse herbicidal test, pre-emergence treatment; conditions: pre-emergence method, application rate 2000 g/ha, scale from 0 to 100, test period 2 to 4 weeks
Source text: as §2

Alopecurus myosuroides = assay: greenhouse herbicidal test, post-emergence treatment; conditions: post-emergence method, application rate 2000 g/ha, scale from 0 to 100, test period 2 to 4 weeks
Source text: as §1

Avena fatua = assay: as above; conditions: post-emergence method, application rate 2000 g/ha, scale from 0 to 100, test period 2 to 4 weeks
Source text: as §1

| Structure (SMILES) | herbicidal activity against AMARE (Amaranthus retroflexus) | herbicidal activity against MATIN (Matricaria inodora) | herbicidal activity against ECHCG (Echinocloa crus-galli [1]) | herbicidal activity against APESV (Apera spica-venti) | herbicidal activity against SETVI (Setaria viridis) | herbicidal activity against ABUTH (ABUTH) | herbicidal activity against ECHCG (Echinocloa crus-galli [2]) | herbicidal activity against ALOMY (Alopecurus myosuroides) | herbicidal activity against AVEFA (Avena fatua) |
| --- | --- | --- | --- | --- | --- | --- | --- | --- | --- |
| Cc1nc(C2CC2)ncc1-c1ncccc1Cl [Ex.01] | very good (a very good herbicidal activity is given at values of at least 85) | very good (a very good herbicidal activity is given at values of at least 85) | – | – | – | – | – | – | – |
| CCOC(=O)C(C)c1nc(C2CC2)ncc1-c1ncccc1Cl (centres unmarked) [Ex.21] | good (A good herbicidal activity is given at values of at least 70) | – | very good (a very good herbicidal activity is given at values of at least 85) | good (A good herbicidal activity is given at values of at least 70) | – | – | – | – | – |
| CCOC(=O)C(C)(C)c1nc(C2CC2)ncc1-c1ncccc1Cl [Ex.22] | very good (a very good herbicidal activity is given at values of at least 85) | – | – | – | – | – | – | – | – |
| CC(O)Cc1nc(C2CC2)ncc1-c1ncccc1Cl (centres unmarked) [Ex.29] | – | – | – | very good (a very good herbicidal activity is given at values of at least 85) | very good (a very good herbicidal activity is given at values of at least 85) | good (A good herbicidal activity is given at values of at least 70) | very good (a very good herbicidal activity is given at values of at least 85) | – | – |
| OC(Cc1nc(C2CC2)ncc1-c1ncccc1Cl)c1cccs1 (centres unmarked) [Ex.33] | very good (a very good herbicidal activity is given at values of at least 85) | – | good (A good herbicidal activity is given at values of at least 70) | – | – | – | – | – | – |
| Cc1occc1-c1nc(C2CC2)ncc1-c1ncccc1Cl [Ex.34] | very good (a very good herbicidal activity is given at values of at least 85) | – | – | very good (a very good herbicidal activity is given at values of at least 85) | – | – | very good (a very good herbicidal activity is given at values of at least 85) | very good (a very good herbicidal activity is given at values of at least 85) | good (A good herbicidal activity is given at values of at least 70) |
| Clc1cccnc1-c1cnc(C2CC2)nc1C=Cc1cccs1 [Ex.35] | – | – | – | very good (a very good herbicidal activity is given at values of at least 85) | very good (a very good herbicidal activity is given at values of at least 85) | – | very good (a very good herbicidal activity is given at values of at least 85) | very good (a very good herbicidal activity is given at values of at least 85) | good (A good herbicidal activity is given at values of at least 70) |
| Clc1cccnc1-c1cnc(C2CC2)nc1C=Cc1ccccc1 [Ex.37] | very good (a very good herbicidal activity is given at values of at least 85) | – | – | – | very good (a very good herbicidal activity is given at values of at least 85) | very good (a very good herbicidal activity is given at values of at least 85) | – | – | – |
| CCC(=O)Cc1nc(C2CC2)ncc1-c1ncccc1Cl [Ex.44] | good (A good herbicidal activity is given at values of at least 70) | – | – | very good (a very good herbicidal activity is given at values of at least 85) | – | – | very good (a very good herbicidal activity is given at values of at least 85) | very good (a very good herbicidal activity is given at values of at least 85) | – |
